# Measurements: patent publication US20250041279A1, “THERAPEUTIC MEDICINE FOR HEART DISEASE OR SKELETAL MUSCLE DISEASE” (SHIONOGI & CO., LTD., priority 2021, published 2025)
# Tests used:
# [1] = biological target: recombinant human ACC1 (Homo sapiens (Human), UniProt Q13085); experiment: Measurement of inhibitory activity of human ACC1 (MALDI-TOF MS); format: biochemical; details: read-out: IC50 hACC1
# Description: A cDNA encoding human ACC1 protein (1 amino acid residue to 2346 amino acid residues from the N-terminus) was cloned from a human liver cDNA library (BioChain Institute Inc.), myc tag and His-tag sequences were introduced at the 3′ end, and then inserted into pIEXBAC3 (Novagen). A recombinant baculovirus was produced in accordance with the protocol for Flash BACGOLD (Oxford Expression Technologies Ltd.), and Sf-9 cells were infected therewith to express human ACC1 protein. The recovered cells were crushed, filtered through a filter, and then subjected to Ni affinity chromatography and anion exchange chromatography. Fractions containing human ACC1 protein were collected to obtain recombinant human ACC1.
# The recombinant human ACC1 and the recombinant human ACC2 obtained from the above Preparation Examples were preincubated in an assay buffer (50 mM HEPES-KOH (pH 7.4), 10 mM magnesium chloride, 6 to 10 mM potassium citrate, 4 mM glutathione reduced form, and 1.5 mg/ml bovine serum albumin) for 1 hour. Then, 5 μL of the pre-incubated enzyme solution and 5 μL of a substrate solution (50 mM HEPES-KOH (pH 7.4), 1 mM ATP, 0.8 mM acetyl-CoA, and 25 to 50 mM potassium bicarbonate) were added to a 384-well microplate into which 0.2 μl of each of solutions of the compound of the present invention (DMSO had been dispensed, and the mixture was centrifuged and shaken, and then incubated in a wet box at room temperature for 1 to 3 hours. After incubation, the enzymatic reaction was stopped by addition of EDTA, and then the sample was co-crystallized with an α-cyano-4-hydroxy cinnamic acid (CHCA) matrix on a MALDI target plate, and measurement was performed in a reflector negative mode using a matrix-assisted laser desorption ionization-time-of-flight mass spectrometer (MALDI-TOF MS). Deprotonated ions of the substrate acetyl-CoA (AcCoA) and the reaction product malonyl-CoA (MalCoA) were detected, and the intensity of each signal was used to calculate a conversion rate to malonyl-CoA or succinyl-CoA, i.e., intensity of [MalCoA-H]—/(intensity of [MalCoA-H]-+intensity of [AcCoA.H].). […] The potassium citrate concentration in the assay buffer, the potassium bicarbonate concentration in the substrate solution, and the incubation time were adjusted within the above concentrations or reaction times for each lot of the enzyme to be used.
# [2] = test system: leptin receptor deficient mice (db/db mice); experiment: Lipid in skeletal muscle cells (IMCL) in diabetes model mice, MRS; format: in vivo; details: 15 mg/kg single oral, 6 hours after administration
# Description: (§1) In order to examine the influence of Compound I-12 on lipid in skeletal muscle cells (IMCL) of diabetes model mice, 6 hours after a single oral administration of a vehicle or Compound I-12 (15 mg/kg) to leptin receptor deficient mice (Leprdb/Leprdb, db/db; db/db mice), MR spectroscopy (MRS) data of the tibialis anterior muscle was measured using animal MRI (Varian MRI System 7T/210, Agilent Technologies) under isoflurane anesthesia. The measurement data was analyzed using software for quantitative analysis of MRS data (LCModel), and the quantity of IMCL was calculated as a creatine ratio.
# [3] = test system: ZDF rats; experiment: Lipid in skeletal muscle cells (IMCL) in diabetes model rats, MRS; format: in vivo; details: oral twice a day (7 mg/kg then 10 or 23 mg/kg), 24 hours after first administration
# Description: In order to examine the influence of Compound I-12 on lipid in skeletal muscle cells (IMCL) of diabetic model rats, vehicle or Compound I-12 was orally administered to a spontaneous diabetes model (ZDF rats) twice a day (first morning administration: 7 mg/kg; second afternoon administration: 10 or 23 mg/kg), and 24 hours after the first administration, MR spectroscopy (MRS) data of the tibialis anterior muscle were measured using animal MRI (Varian MRI System 7T/210, Agilent Technologies) under isoflurane anesthesia. The measurement data was analyzed using software for quantitative analysis of MRS data (LCModel), and the quantity of IMCL was calculated as a creatine ratio.
# [4] = test system: SD rats; experiment: Lipid in skeletal muscle cells (IMCL) in SD rats, MRS; format: in vivo; details: 20 mg/kg single oral, 24 hours after administration
# Description: as §1, with “I-13” for “I-12”, “(IMCL), 24” for “(IMCL) of diabetes model mice, 6”, “I-13 (20” for “I-12 (15”, “SD rats,” for “leptin receptor deficient mice (Leprdb/Leprdb, db/db; db/db mice),”
# [5] = test system: Atgl knockout mice; experiment: Spontaneous motility of Atgl knockout mice; format: in vivo; details: 45 mg/kg/10 mL repeated administration, 12 weeks of age, p<0.05, Welch's t test
# Description: Atgl (adipose-triglyceride lipase) knockout mice are known as non clinical models of TGCV. Atgl knockout mice (KO mice) deficient in the Atgl gene were each produced by a known method.
# In order to examine the influence of the compounds of the present invention on spontaneous motility, spontaneous motility of Atgl knockout mice was measured using SCANET MV-40 ([…]) at 12 weeks of age after repeated administration of vehicle or the compounds of the present invention to the Atgl knockout mice. The mice were allowed to stand in a cage placed in the device, and the motility thereof for 30 minutes was measured.
SMILES,IC50 [1] [µM],"IMCL (creatine ratio), tibialis anterior muscle [2]","IMCL (creatine ratio), tibialis anterior muscle [3]","IMCL (creatine ratio), tibialis anterior muscle [4]",spontaneous motility (30 minutes) [5]
C[C@@H](COC1CCC(Oc2nc3c(F)cc(OC4CC4)cc3n2C)CC1)NC(N)=O (stereo partly drawn) [Compound I-12],6.9,significant IMCL decreasing effect,significant IMCL decreasing effect,–,–
CC(=O)N[C@@H](C)CCC1OCC(Oc2nc3c(F)c(OC4CC4)ccc3n2C)CO1 (stereo partly drawn) [Compound I-13],0.91,–,–,significant IMCL decreasing effect,significant improving effect
